In ChEMBL document CHEMBL3739373, “1,2,3-Triazole derivatives as antitubercular agents: synthesis, biological evaluation and molecular docking study” (Medchemcomm, 2015):
Converted amounts (≈) assume the structure as drawn.

Experiments:
[1] = system: Mycobacterium tuberculosis; assay: Antitubercular activity against dormant phase Mycobacterium tuberculosis H37Ra ATCC 25177 incubated for 12 days by XTT reduction menadione assay; assay type: functional, organism-based; details: 288 h
[2] = Antioxidant activity assessed as DPPH radical scavenging activity after 30 mins by spectrophotometric analysis; assay type: physicochemical
[3] = Cytotoxicity against human THP1 cells assessed as growth inhibition after 48 hrs by MTT assay; assay type: cell-based, THP-1; details: for GI50 at 48 h: THP1 cells; for GI90: thp-1, 48 h
[4] = (§1) Cytotoxicity against human A549 cells assessed as growth inhibition after 48 hrs by MTT assay; assay type: cell-based; details: A549 cells
A549 = assay: as §1; assay type: cell-based; details: a549, 48 h
[5] = Cytotoxicity against human PANC1 cells assessed as growth inhibition after 48 hrs by MTT assay; assay type: cell-based, PANC-1; details: for GI50 at 48 h: PANC1 cells; for GI90: panc-1, 48 h
[6] = Selectivity index, ratio of GI50 for human THP1 cells to MIC for dormant phase Mycobacterium tuberculosis H37Ra ATCC 25177; assay type: toxicity, cell-based, THP-1; details: read-out: Selectivity Index
[7] = Selectivity index, ratio of GI50 for human A549 cells to MIC for dormant phase Mycobacterium tuberculosis H37Ra ATCC 25177; assay type: toxicity, cell-based; details: read-out: Selectivity Index
[8] = Selectivity index, ratio of GI50 for human PANC1 cells to MIC for dormant phase Mycobacterium tuberculosis H37Ra ATCC 25177; assay type: toxicity, cell-based, PANC-1; details: read-out: Selectivity Index

Compound	IC50 [1] [µg/mL]	MIC [1] [µg/mL]	IC50 [2] [µg/mL]	GI50 at 48 h [3] [µg/mL]	GI90 [3] [µg/mL]	GI50 at 48 h [4] [µg/mL]	GI90 (A549) [µg/mL]	GI50 at 48 h [5] [µg/mL]	GI90 [5] [µg/mL]	selectivity ratio [6]	selectivity ratio [7]	selectivity ratio [8]
Cc1ccc(OCc2cn(Cc3ccc(Br)cc3)nn2)cc1	7.8 (≈ 21.8 µM)	> 30	16.3 (≈ 45.5 µM)									
Cc1cc(OCc2cn(Cc3ccc(Cl)cc3)nn2)ccc1Cl	0.2 (≈ 0.574 µM)	26.9 (≈ 77.2 µM)	11.4 (≈ 32.7 µM)	31.2 (≈ 89.6 µM)	88.1 (≈ 253 µM)	> 100	> 100	> 100	> 100	1.2	> 3.7	> 3.7
Clc1cc(Cl)c(OCc2cn(Cc3ccc(Br)cc3)nn2)c(Cl)c1	0.9 (≈ 2.01 µM)	27.8 (≈ 62.1 µM)	14 (≈ 31.3 µM)	58.7 (≈ 131 µM)	> 100	> 100	> 100	> 100	> 100	2.1	> 3.6	> 3.6
O=[N+]([O-])c1ccc(Cn2cc(COc3cccc([N+](=O)[O-])c3)nn2)cc1	> 100	> 100	17.1 (≈ 48.1 µM)									
O=[N+]([O-])c1cccc(Cn2cc(COc3c(Cl)cc(Cl)cc3Cl)nn2)c1	2.6 (≈ 6.29 µM)	> 30	29.2 (≈ 70.6 µM)									
Clc1cccc(Cn2cc(COc3ccccc3)nn2)c1	2.4 (≈ 8.01 µM)	27.7 (≈ 92.4 µM)	27.3 (≈ 91.1 µM)	14.6 (≈ 48.7 µM)	54.3 (≈ 181 µM)	> 100	> 100	> 100	> 100	0.5	> 3.6	> 3.6
Clc1cccc(Cn2cc(COc3c(Cl)cc(Cl)cc3Cl)nn2)c1	2.2 (≈ 5.46 µM)	> 30	16.4 (≈ 40.7 µM)									
O=[N+]([O-])c1cccc(OCc2cn(Cc3ccc(Br)cc3)nn2)c1	43.2 (≈ 111 µM)	> 100	29.4 (≈ 75.5 µM)									
O=[N+]([O-])c1cccc(Cn2cc(COc3cccc([N+](=O)[O-])c3)nn2)c1	8.3 (≈ 23.4 µM)	> 30	19.1 (≈ 53.8 µM)									
Clc1ccc(Cn2cc(COc3c(Cl)cc(Cl)cc3Cl)nn2)cc1	0.8 (≈ 1.98 µM)	7.7 (≈ 19.1 µM)	27.2 (≈ 67.5 µM)	25.1 (≈ 62.3 µM)	> 100	> 100	> 100	> 100	> 100	3.2	> 12.9	> 12.9
O=[N+]([O-])c1cccc(Cn2cc(COc3ccc(Cl)cc3)nn2)c1	2.6 (≈ 7.54 µM)	29.2 (≈ 84.7 µM)	21.3 (≈ 61.8 µM)	34.9 (≈ 101 µM)	97.6 (≈ 283 µM)	> 100	> 100	> 100	> 100	1.2	> 3.4	> 3.4
Cc1ccc(OCc2cn(Cc3cccc(Cl)c3)nn2)cc1	3 (≈ 9.56 µM)	28.9 (≈ 92.1 µM)	16.3 (≈ 51.9 µM)	36.7 (≈ 117 µM)	93.1 (≈ 297 µM)	> 100	> 100	> 100	> 100	1.3	> 3.5	> 3.5
O=[N+]([O-])c1cccc(OCc2cn(Cc3ccc(Cl)cc3)nn2)c1	53.4 (≈ 155 µM)	> 100	37.3 (≈ 108 µM)									
O=[N+]([O-])c1cccc(OCc2cn(Cc3cccc(Cl)c3)nn2)c1	26.6 (≈ 77.2 µM)	> 100	31.2 (≈ 90.5 µM)									
O=[N+]([O-])c1ccc(OCc2cn(Cc3ccc(Br)cc3)nn2)c(I)c1	25 (≈ 48.5 µM)	> 30	18.5 (≈ 35.9 µM)									
Brc1ccc(Cn2cc(COc3ccccc3)nn2)cc1	3.2 (≈ 9.3 µM)	28.9 (≈ 84 µM)	18.3 (≈ 53.2 µM)	16.2 (≈ 47.1 µM)	68.3 (≈ 198 µM)	> 100	> 100	> 100	> 100	0.6	> 3.5	> 3.5
Clc1ccc(Cn2cc(COc3ccccc3)nn2)cc1	3.5 (≈ 11.7 µM)	29.9 (≈ 99.7 µM)	26.1 (≈ 87.1 µM)	36.4 (≈ 121 µM)	> 100	> 100	> 100	> 100	> 100	1.2	> 3.3	> 3.3
Cc1cc(C(C)(C)C)c(O)c(C(C)(C)C)c1 [BUTYLATED HYDROXYTOLUENE]			16.5 (≈ 74.9 µM)									
CC(=O)O[C@H]1C(=O)[C@@]2(C)[C@H]([C@H](OC(=O)c3ccccc3)[C@]3(O)C[C@H](OC(=O)[C@H](O)[C@@H](NC(=O)c4ccccc4)c4ccccc4)C(C)=C1C3(C)C)[C@]1(OC(C)=O)CO[C@@H]1C[C@@H]2O [PACLITAXEL]				0.14 (≈ 0.164 µM)	5.82 (≈ 6.82 µM)	0.13 (≈ 0.152 µM)	5.72 (≈ 6.7 µM)	0.004 (≈ 0.00468 µM)	0.07 (≈ 0.082 µM)	> 2330	> 2330	> 2330
CO[C@H]1/C=C/O[C@@]2(C)Oc3c(C)c(O)c4c(O)c(c(/C=N/N5CCN(C)CC5)c(O)c4c3C2=O)NC(=O)/C(C)=C\C=C\[C@H](C)[C@H](O)[C@@H](C)[C@@H](O)[C@@H](C)[C@H](OC(C)=O)[C@@H]1C [RIFAMPIN]	0.002 (≈ 0.00243 µM)	0.04 (≈ 0.0486 µM)										
Cc1ccc(OCc2cn(Cc3ccc(Cl)cc3)nn2)cc1	2.5 (≈ 7.97 µM)	24.2 (≈ 77.1 µM)	17.3 (≈ 55.1 µM)	74.1 (≈ 236 µM)	> 100	> 100	> 100	> 100	> 100	3.1	> 4.1	> 4.1
Cc1ccc(OCc2cn(Cc3cccc([N+](=O)[O-])c3)nn2)cc1	2.4 (≈ 7.4 µM)	> 30	12.1 (≈ 37.3 µM)									
O=[N+]([O-])c1ccc(Cn2cc(COc3c(Cl)cc(Cl)cc3Cl)nn2)cc1	2.2 (≈ 5.32 µM)	> 30	28.9 (≈ 69.9 µM)									
O=[N+]([O-])c1cccc(Cn2cc(COc3ccccc3)nn2)c1	2.4 (≈ 7.73 µM)	> 30	25.3 (≈ 81.5 µM)									
Cc1cc(OCc2cn(Cc3ccc(Br)cc3)nn2)ccc1Cl	2.4 (≈ 6.11 µM)	> 30	16.5 (≈ 42 µM)									
Cc1cc(OCc2cn(Cc3cccc([N+](=O)[O-])c3)nn2)ccc1Cl	2.2 (≈ 6.13 µM)	> 30	15.6 (≈ 43.5 µM)									
O=C1O[C@H]([C@@H](O)CO)C(O)=C1O [ASCORBIC ACID]			12.7 (≈ 72.1 µM)									
